Laboratory results from ChEMBL document CHEMBL3885861, “Open TG-GATES”.

Organism: Rattus norvegicus
Experiment: Open TG-GATES - Regimen: Daily Repeat
Type: toxicity, organism-based, Sprague-Dawley
Design: regimen Daily Repeat, gender Male, age 6 weeks
Details: in vivo, po, 100 mg/kg, route gavage, dose level Middle; for APTT / Bas / Eos / Fbg / Hb / Ht / Lym / MCH / MCHC / MCV / Mono / Neu / PT / Plat / RBC / Ret / WBC: tissue Blood; for KIDNEY_L / KIDNEY_R / KIDNEY_TOTAL: tissue Kidney; for LIVER: tissue Liver; for A/G / ALP / ALT / AST / BUN / CRE / Ca / Cl / DBIL / GLC / IP / K / LDH / Na / PL / RALB / TBIL / TC / TG / TP / gamma-GTP: tissue Plasma

Structure (SMILES): C[C@]12CCC(=O)C=C1CC[C@@H]1[C@@H]2CC[C@@]2(C)[C@H]1CC[C@]2(C)O [METHYLTESTOSTERONE]
- TERMINAL_BW (72 h, time 3 day): 237.7 g
- APTT (72 h, time 3 day): 15.9 s
- Bas (72 h, time 3 day): 0%
- Eos (72 h, time 3 day): 1%
- Fbg (72 h, time 3 day): 325.4 mg/dL
- Hb (72 h, time 3 day): 13.7 g/dL
- Ht (72 h, time 3 day): 40.1%
- Lym (72 h, time 3 day): 73.6%
- MCH (72 h, time 3 day): 21.9 pg
- MCHC (72 h, time 3 day): 34%
- MCV (72 h, time 3 day): 64.5 fL
- Mono (72 h, time 3 day): 2.4%
- Neu (72 h, time 3 day): 22.6%
- PT (72 h, time 3 day): 13 s
- Plat (72 h, time 3 day): 107 x10_4/uL
- RBC (72 h, time 3 day): 623.4 x10_4/ul
- Ret (72 h, time 3 day): 7%
- WBC (72 h, time 3 day): 71.4 x10_2/uL
- KIDNEY_L (72 h, time 3 day): 1.1 g
- KIDNEY_R (72 h, time 3 day): 1 g
- KIDNEY_TOTAL (72 h, time 3 day): 2.1 g
- LIVER (72 h, time 3 day): 11.9 g
- A/G (72 h, time 3 day): 0.9
- ALP (72 h, time 3 day): 1787 IU/L
- ALT (72 h, time 3 day): 41.8 IU/L
- AST (72 h, time 3 day): 65.2 IU/L
- BUN (72 h, time 3 day): 14.6 mg/dL
- CRE (72 h, time 3 day): 0.2 mg/dL
- Ca (72 h, time 3 day): 11.1 mg/dL
- Cl (72 h, time 3 day): 107.2 meq/L
- DBIL (72 h, time 3 day): 0.02 mg/dL
- GLC (72 h, time 3 day): 180 mg/dL
- IP (72 h, time 3 day): 8.2 mg/dL
- K (72 h, time 3 day): 4.1 meq/L
- LDH (72 h, time 3 day): 77.4 IU/L
- Na (72 h, time 3 day): 143.4 meq/L
- PL (72 h, time 3 day): 135 mg/dL
- RALB (72 h, time 3 day): 2.8 g/dL
- TBIL (72 h, time 3 day): 0.026 mg/dL
- TC (72 h, time 3 day): 55 mg/dL
- TG (72 h, time 3 day): 155.2 mg/dL
- TP (72 h, time 3 day): 6 g/dL
- gamma-GTP (72 h, time 3 day): 1 IU/L
- TERMINAL_BW ([…], time 7 day): 271.1 g
- TERMINAL_BW ([…], time 14 day): 314.6 g
- TERMINAL_BW ([…], time 28 day): 402.8 g
- APTT ([…], time 7 day): 15.7 s
- Bas ([…], time 7 day): 0%
- Eos ([…], time 7 day): 1%
- Fbg ([…], time 7 day): 324.2 mg/dL
- Hb ([…], time 7 day): 13.9 g/dL
- Ht ([…], time 7 day): 40.8%
- Lym ([…], time 7 day): 79%
- MCH ([…], time 7 day): 21 pg
- MCHC ([…], time 7 day): 34.1%
- MCV ([…], time 7 day): 61.4 fL
- Mono ([…], time 7 day): 2.6%
- Neu ([…], time 7 day): 16.8%
- PT ([…], time 7 day): 13.4 s
- Plat ([…], time 7 day): 116 x10_4/uL
- RBC ([…], time 7 day): 663.8 x10_4/ul
- Ret ([…], time 7 day): 5.3%
- WBC ([…], time 7 day): 72.5 x10_2/uL
- APTT ([…], time 14 day): 19.7 s
- Bas ([…], time 14 day): 0.2%
- Eos ([…], time 14 day): 0.6%
- Fbg ([…], time 14 day): 304 mg/dL
- Hb ([…], time 14 day): 14.3 g/dL
- Ht ([…], time 14 day): 41%
- Lym ([…], time 14 day): 78.2%
- MCH ([…], time 14 day): 20.4 pg
- MCHC ([…], time 14 day): 34.9%
- MCV ([…], time 14 day): 58.5 fL
- Mono ([…], time 14 day): 3.2%
- Neu ([…], time 14 day): 17.2%
- PT ([…], time 14 day): 13.5 s
- Plat ([…], time 14 day): 113.1 x10_4/uL
- RBC ([…], time 14 day): 701.4 x10_4/ul
- Ret ([…], time 14 day): 3.6%
- WBC ([…], time 14 day): 101.8 x10_2/uL
- APTT ([…], time 28 day): 17.5 s
- Bas ([…], time 28 day): 0%
- Eos ([…], time 28 day): 1.2%
- Fbg ([…], time 28 day): 337 mg/dL
- Hb ([…], time 28 day): 15.6 g/dL
- Ht ([…], time 28 day): 43.7%
- Lym ([…], time 28 day): 77%
- MCH ([…], time 28 day): 19.9 pg
- MCHC ([…], time 28 day): 35.6%
- MCV ([…], time 28 day): 55.8 fL
- Mono ([…], time 28 day): 2.6%
- Neu ([…], time 28 day): 18.8%
- PT ([…], time 28 day): 13.6 s
- Plat ([…], time 28 day): 99.5 x10_4/uL
- RBC ([…], time 28 day): 783.4 x10_4/ul
- Ret ([…], time 28 day): 3%
- WBC ([…], time 28 day): 101.5 x10_2/uL
- KIDNEY_L ([…], time 7 day): 1.1 g
- KIDNEY_R ([…], time 7 day): 1.2 g
- KIDNEY_TOTAL ([…], time 7 day): 2.3 g
- KIDNEY_L ([…], time 14 day): 1.3 g
- KIDNEY_R ([…], time 14 day): 1.3 g
- KIDNEY_TOTAL ([…], time 14 day): 2.6 g
- KIDNEY_L ([…], time 28 day): 1.6 g
- KIDNEY_R ([…], time 28 day): 1.5 g
- KIDNEY_TOTAL ([…], time 28 day): 3.2 g
- LIVER ([…], time 7 day): 13.1 g
- LIVER ([…], time 14 day): 15 g
- LIVER ([…], time 28 day): 17.8 g
- A/G ([…], time 7 day): 0.9
- ALP ([…], time 7 day): 2042.4 IU/L
- ALT ([…], time 7 day): 46.8 IU/L
- AST ([…], time 7 day): 71.6 IU/L
- BUN ([…], time 7 day): 16.6 mg/dL
- CRE ([…], time 7 day): 0.2 mg/dL
- Ca ([…], time 7 day): 11 mg/dL
- Cl ([…], time 7 day): 105.4 meq/L
- DBIL ([…], time 7 day): 0.028 mg/dL
- GLC ([…], time 7 day): 194.8 mg/dL
- IP ([…], time 7 day): 8 mg/dL
- K ([…], time 7 day): 4 meq/L
- LDH ([…], time 7 day): 100 IU/L
- Na ([…], time 7 day): 143 meq/L
- PL ([…], time 7 day): 133.6 mg/dL
- RALB ([…], time 7 day): 2.7 g/dL
- TBIL ([…], time 7 day): 0.028 mg/dL
- TC ([…], time 7 day): 45.8 mg/dL
- TG ([…], time 7 day): 238.4 mg/dL
- TP ([…], time 7 day): 5.9 g/dL
- gamma-GTP ([…], time 7 day): 1.2 IU/L
- A/G ([…], time 14 day): 0.8
- ALP ([…], time 14 day): 1318.6 IU/L
- ALT ([…], time 14 day): 64.2 IU/L
- AST ([…], time 14 day): 76.2 IU/L
- BUN ([…], time 14 day): 15 mg/dL
- CRE ([…], time 14 day): 0.2 mg/dL
- Ca ([…], time 14 day): 10.6 mg/dL
- Cl ([…], time 14 day): 105.2 meq/L
- DBIL ([…], time 14 day): 0.018 mg/dL
- GLC ([…], time 14 day): 198.8 mg/dL
- IP ([…], time 14 day): 7.9 mg/dL
- K ([…], time 14 day): 4.1 meq/L
- LDH ([…], time 14 day): 118.2 IU/L
- Na ([…], time 14 day): 141.6 meq/L
- PL ([…], time 14 day): 137.8 mg/dL
- RALB ([…], time 14 day): 2.8 g/dL
- TBIL ([…], time 14 day): 0.026 mg/dL
- TC ([…], time 14 day): 52.8 mg/dL
- TG ([…], time 14 day): 157 mg/dL
- TP ([…], time 14 day): 6.1 g/dL
- gamma-GTP ([…], time 14 day): 1.2 IU/L
- A/G ([…], time 28 day): 0.8
- ALP ([…], time 28 day): 1264.2 IU/L
- ALT ([…], time 28 day): 43 IU/L
- AST ([…], time 28 day): 59.8 IU/L
- BUN ([…], time 28 day): 13.8 mg/dL
- CRE ([…], time 28 day): 0.2 mg/dL
- Ca ([…], time 28 day): 11.1 mg/dL
- Cl ([…], time 28 day): 103 meq/L
- DBIL ([…], time 28 day): 0.028 mg/dL
- GLC ([…], time 28 day): 189.2 mg/dL
- IP ([…], time 28 day): 6.4 mg/dL
- K ([…], time 28 day): 3.7 meq/L
- LDH ([…], time 28 day): 99.4 IU/L
- Na ([…], time 28 day): 143 meq/L
- PL ([…], time 28 day): 141 mg/dL
- RALB ([…], time 28 day): 2.8 g/dL
- TBIL ([…], time 28 day): 0.028 mg/dL
- TC ([…], time 28 day): 41.2 mg/dL
- TG ([…], time 28 day): 321.6 mg/dL
- TP ([…], time 28 day): 6.4 g/dL
- gamma-GTP ([…], time 28 day): 1 IU/L
